According to patent US9422300B2, “Bisulfate of janus kinase (JAK) inhibitor and preparation method therefor” (Jiangsu Hengrui Medicine Co., Ltd., priority 2013, dated 2016):
Read-outs that look alike come from different tables or passages of the source.

Legend:
[1] = Pharmacokinetic parameters in rhesus monkeys; format: in vivo; conditions: for AUC(0-t) / Cmax / MRT / t1/2: rhesus monkeys, single dose, plasma; for AUC(0-t) / Cmax / MRT / t1/2 / individual variation of in vivo exposure: 50 mg/kg
Description: The pharmacokinetic parameters of the compound of formula (IV) and its different salt forms were studied in rhesus monkeys, and the properties of the different forms of the compounds were evaluated in detail. Four rhesus monkeys were used as test animals, half male and half female. The rhesus monkeys were administered a single dose of 50 mg/kg. Multi-crossover design was adopted to administer different drugs to test animals, and the convalescence from each cycle was three days. Blood samples (0.5 mL) were taken from the femoral vein before administration (0 h), and at 0.25 h, 0.5 h, 1 h, 2 h, 4 h, 6 h, 8 h and 24 h after administration, stored in heparinized tubes, shaken well, and centrifuged for 10 minutes at 3500 rpm to separate blood plasma. The plasma samples were stored at low temperature, LC-MS/MS was used to measure drug concentration in plasma and liver, and pharmacokinetic parameters were analyzed by WinNonlin 5.3 software.

[2] = system: rheumatoid arthritis patients; conditions: phase III clinical trial, cited from earlier work

t1/2 [1] [h]	Compound	AUC(0-t) [1] [ng·h/mL]	Cmax [1] [ng/mL]	MRT [1] [h]	other results
–	C[C@@H]1CCN(C(=O)CC#N)C[C@@H]1N(C)c1ncnc2[nH]ccc12 [tofacitinib]	–	–	–	efficacy compared with methotrexate ([2]; 5 mg/10 mg as a single drug): significantly better than methotrexate; efficacy in reducing the progression of internal structural damage compared with methotrexate ([2]; period of six months): slightly better than methotrexate
6.3 ± 3.5	COc1nsc(NC(=O)N2C[C@H]3C[C@H](N(C)c4ncnc5[nH]ccc45)C[C@H]3C2)n1 [Compound of formula (IV), (3aR,5s,6aS)—N-(3-Methoxy-1,2,4-thiadiazol-5-yl)-5-(methyl(7H-pyrrolo[2,3-d]pyrimidin-4-yl)amino)hexahydrocyclopenta[c]pyrrol-2(1H)-carboxamide]	41111 ± 59593	6176 ± 8838	8.8 ± 5.16	in vivo exposure ([1]; monkeys, 50 mg/kg single dose): 41111 ng/ml*h; individual variation of in vivo exposure ([1]; monkeys, 50 mg/kg single dose): relatively large individual variation
5.3 ± 1.6	COc1nsc(NC(=O)N2C[C@H]3C[C@H](N(C)c4ncnc5[nH]ccc45)C[C@H]3C2)n1 [Bisulfate, (3aR,5s,6aS)—N-(3-methoxyl-1,2,4-thiadiazol-5-yl)-5-(methyl(7H-pyrrolo[2,3-d]pyrimidin-4-yl)amino)hexahydrocyclopenta[c]pyrrole-2(1H)-carboxamide bisulfate]	–	–	–	AUC(0-t) ([1]; both sexes, rhesus monkey, read-out: AUC(0-t)): 63000 ± 53600 ng·h/mL; Cmax ([1]; both sexes, rhesus monkey, read-out: Cmax): 9940 ± 5320 ng/mL; MRT ([1]; both sexes, rhesus monkey, read-out: MRT): 6.3 ± 1.7 h; increase of in vivo exposure relative to that of the base ([1]; monkeys, 50 mg/kg single dose): 50%; individual variation of in vivo exposure ([1]; monkeys, 50 mg/kg single dose, listed as bisulfate salt): relatively small individual variation

Compound	t1/2 [1] [h]	AUC(0-t) [1] [ng·h/mL]	Cmax [1] [ng/mL]	MRT [1] [h]	other results
Citrate	6.3 ± 5.5	44357 ± 45012	5627 ± 4201	10.0 ± 7.6	–
